Test results: ChEMBL document CHEMBL1201862, “PubChem BioAssay data set” (2004)
Active and inactive are the calls of the source.

How the values were obtained:
[1] = Luminescence-based cell-based high throughput dose response assay to identify activators of the DAF-12 from the parasite S. stercoralis (ssDAF-12).; assay type: functional
[2] = target: T1, Oxysterols receptor LXR-beta (Homo sapiens, UniProt P55055); assay: LXR agonists, Gal4 luciferase reporter, dose response, counter-screen for ssDAF-12 agonist project, cell-based, luminescence, HEK293, S. stercoralis campaign (AID 720737); assay type: functional; details: read-out: IC50 (the source's name)
T1 sequence (P55055 whole entry): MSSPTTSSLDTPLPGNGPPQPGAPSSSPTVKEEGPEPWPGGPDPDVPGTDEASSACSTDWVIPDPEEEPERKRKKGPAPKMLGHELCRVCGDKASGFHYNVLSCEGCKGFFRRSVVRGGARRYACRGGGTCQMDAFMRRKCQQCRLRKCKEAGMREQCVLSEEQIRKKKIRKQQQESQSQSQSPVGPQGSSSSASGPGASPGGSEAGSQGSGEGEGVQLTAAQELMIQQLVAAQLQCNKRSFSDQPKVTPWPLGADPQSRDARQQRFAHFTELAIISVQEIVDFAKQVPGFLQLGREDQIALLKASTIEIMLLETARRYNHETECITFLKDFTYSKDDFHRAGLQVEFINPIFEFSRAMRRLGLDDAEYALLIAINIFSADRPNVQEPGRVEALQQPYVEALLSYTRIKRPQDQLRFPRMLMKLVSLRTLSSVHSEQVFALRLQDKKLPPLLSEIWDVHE

[3] = target: T1, Oxysterols receptor LXR-beta; assay type: functional, cell-based
[4] = cells
[5] = cytotoxicity in HEK-293T cells, dose response, cytotoxicity control for TCR NF-kB inhibitor project, luminescence, T-cell screen hits (AID 489026); assay type: functional, cell-based;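 also: cells exposed to compound about 14 hours before the viability readout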
[6] = tested on: INS1; assay: beta cell apoptosis inhibitors, cytokine rescue, dose response, luminescence, retest (AID 449756); assay type: functional, cell-based; details: Rattus norvegicus;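 also: cell death triggered by IL-1 beta plus TNF-alpha plus IFN-gamma mixture; protective hits raise ATP signal compared with cytokine alone wells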
[7] = target: T2, COUP transcription factor 2 (Homo sapiens, UniProt P24468); assay: Luminescence-based cell-based high throughput dose response assay to identify inhibitors of COUP-TFII (NR2F2).; assay type: functional;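 also: HEK293 cells transiently cotransfected with COUP-TFII expression vector and reporter; luciferase reporter luminescence driven by COUP-TFII from the pX2-168 reporter plasmid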
T2 sequence (P24468 whole entry): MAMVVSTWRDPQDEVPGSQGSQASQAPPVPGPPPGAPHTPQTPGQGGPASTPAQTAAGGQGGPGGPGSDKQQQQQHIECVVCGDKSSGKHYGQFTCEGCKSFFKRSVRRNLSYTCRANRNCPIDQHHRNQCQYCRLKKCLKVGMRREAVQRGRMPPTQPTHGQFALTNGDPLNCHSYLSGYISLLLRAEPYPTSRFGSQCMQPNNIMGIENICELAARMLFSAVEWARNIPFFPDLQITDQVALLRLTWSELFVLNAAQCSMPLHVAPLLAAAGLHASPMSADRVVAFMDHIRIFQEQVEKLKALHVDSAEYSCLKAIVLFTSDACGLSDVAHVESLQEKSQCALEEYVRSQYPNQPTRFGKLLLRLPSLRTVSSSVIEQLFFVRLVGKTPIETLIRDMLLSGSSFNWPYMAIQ

[8] = NIH-3T3 fibroblast cytotoxicity, dose response, cytotoxicity control, cell-based, fluorescence, Alamar Blue, secondary assay (AID 2327); assay type: functional;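 also: NIH-3T3 mouse fibroblasts cultured with fluconazole at 8 µg/mL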
[9] = target: T3, Heat shock factor protein 1 (Mus musculus, UniProt P38532); assay: inhibition of MG132-induced HSE-luciferase signal, confirmation, cell-based, NIH3T3, luminescence, dose retest (AID 2382); assay type: functional;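 also: NIH3T3 fibroblasts with HSF1-driven luciferase reporter stressed by proteasome inhibitor MG132; luminescence from HSF1-driven luciferase expression after 8 hours of MG132 stress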
T3 sequence (P38532 whole entry): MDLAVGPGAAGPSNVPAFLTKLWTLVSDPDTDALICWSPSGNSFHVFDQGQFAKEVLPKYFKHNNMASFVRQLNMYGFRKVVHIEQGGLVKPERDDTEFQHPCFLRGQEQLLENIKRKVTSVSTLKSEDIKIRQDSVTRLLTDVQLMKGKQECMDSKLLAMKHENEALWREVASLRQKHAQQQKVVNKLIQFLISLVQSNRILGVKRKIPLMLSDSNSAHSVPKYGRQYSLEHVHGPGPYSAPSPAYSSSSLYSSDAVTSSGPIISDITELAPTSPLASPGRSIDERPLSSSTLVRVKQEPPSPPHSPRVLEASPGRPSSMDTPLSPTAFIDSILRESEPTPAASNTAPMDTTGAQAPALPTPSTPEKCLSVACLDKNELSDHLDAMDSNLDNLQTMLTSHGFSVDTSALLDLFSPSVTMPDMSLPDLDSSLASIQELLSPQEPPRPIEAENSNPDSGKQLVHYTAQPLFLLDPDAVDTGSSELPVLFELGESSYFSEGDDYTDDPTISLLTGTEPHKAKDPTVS

[10] = C. albicans growth with fluconazole, confirmation, fluorescence, retest (AID 2467); assay type: functional, cell-based
[11] = target: T4, Mannose-6-phosphate isomerase (Homo sapiens, UniProt P34949); assay: human PMI inhibitors, high substrate, primary screen, biochemical, fluorescence intensity, high mannose 6-phosphate (AID 1220)
T4 sequence (P34949 whole entry): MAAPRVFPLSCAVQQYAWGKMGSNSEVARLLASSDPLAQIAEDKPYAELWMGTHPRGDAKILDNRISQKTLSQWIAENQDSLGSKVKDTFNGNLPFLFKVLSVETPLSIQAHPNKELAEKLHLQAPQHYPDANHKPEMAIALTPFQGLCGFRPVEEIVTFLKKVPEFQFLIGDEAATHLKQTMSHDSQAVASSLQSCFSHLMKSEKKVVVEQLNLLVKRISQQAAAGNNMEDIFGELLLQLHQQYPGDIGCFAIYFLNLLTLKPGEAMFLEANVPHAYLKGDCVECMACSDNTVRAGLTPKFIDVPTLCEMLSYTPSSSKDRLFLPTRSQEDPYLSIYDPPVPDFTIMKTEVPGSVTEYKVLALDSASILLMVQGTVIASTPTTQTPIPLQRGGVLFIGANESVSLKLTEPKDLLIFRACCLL

[12] = target: Paired box protein Pax-8 (Homo sapiens, UniProt Q06710); assay: inhibitors of PAX8-driven TPO luciferase reporter, dose response, RMG-I cells, cherry-pick (AID 687027); assay type: functional, cell-based;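 also: luciferase reporter driven by Pax8 target thyroperoxidase promoter measured by SteadyGlo luminescence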
[13] = HEK293T cell cytotoxicity, dose response, cytotoxicity control for HIV Vif inhibitor project, cherry-picks (AID 652208); assay type: functional, cell-based

Paired box protein Pax-8, sequence (Q06710 whole entry): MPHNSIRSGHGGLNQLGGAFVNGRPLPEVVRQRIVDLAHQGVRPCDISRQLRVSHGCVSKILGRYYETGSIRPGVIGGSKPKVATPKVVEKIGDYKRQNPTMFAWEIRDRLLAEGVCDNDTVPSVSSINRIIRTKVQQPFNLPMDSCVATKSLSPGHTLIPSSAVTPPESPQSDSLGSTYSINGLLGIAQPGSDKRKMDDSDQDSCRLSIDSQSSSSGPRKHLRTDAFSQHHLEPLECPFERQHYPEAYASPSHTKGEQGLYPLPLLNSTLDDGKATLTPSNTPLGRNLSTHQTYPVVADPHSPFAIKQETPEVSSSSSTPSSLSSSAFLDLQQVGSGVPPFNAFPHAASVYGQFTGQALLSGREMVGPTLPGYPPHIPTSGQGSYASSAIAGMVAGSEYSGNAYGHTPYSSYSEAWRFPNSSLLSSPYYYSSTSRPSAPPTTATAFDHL

Compound	IC50 [1]	EC50 [2]	EC50 [3]	EC50 [4]	also measured
Cc1cc(-c2nc3ccccc3s2)ccc1N	> 67.6 µM (inactive)	> 67.6 µM (inactive)	> 67.6 µM (inactive)	> 67.6 µM (inactive)	–
Cn1cccc1C(=O)OCc1csc(-c2ccccc2)n1	> 67.5 µM (inactive)	> 67.5 µM (inactive)	> 67.5 µM (inactive)	> 67.5 µM (inactive)	–
Cc1nn(C)c(C)c1CN(Cc1nc(CCC(C)C)no1)C(C)C	–	–	–	–	IC50 [5]: > 80 µM (inactive); AC50 [6]: 2.24 µM (active); IC50 [7]: 4.68 µM (active)
Cc1cccc(NCc2ccc(O)c3ncccc23)c1C	–	–	–	–	EC50 [8]: > 150 µM (inactive); EC50 [9]: > 195 µM (not active); EC50 [10]: > 38 µM (not active); IC50 [11]: > 50 µM (not active); AC50 [12]: 15 µM (active)
CCOC(=O)N1CCN(c2c(NCc3ccc(Cl)cc3)c(=O)c2=O)CC1	–	–	–	–	AC50 [13]: > 52 µM (inactive)
Cc1ccc2[nH]c(-c3sc4nc(C)ccc4c3N)nc2c1	> 67.6 µM (inactive)	–	> 67.5 µM (inactive)	> 67.5 µM (inactive)	–
